Measured values from US20220016079A1, “COMBINATION TREATMENT OF HIV INFECTIONS” (priority 2018, published 2022).

Experiments:
[1] = test system: latent HIV-1 in rCD4+ cells co-cultured with CD8+ cells; assay: HIV-1 reactivation in ex vivo co-cultures of rCD4+ and CD8+ cells from an ART-treated HIV patient (HIV RNA in supernatant); format: cell-based, human
Description: The efficacy of IAPa, ICI or IAPa/ICI combinations in reversing HIV-1 latency was tested in HIV-1 infected rCD4+ cells co-cultured for 48 h with CD8+ cells from the same donor.
Method: Blood from one HIV-1-infected patient under ART was collected (500 mL) and CD4+ and CD8+ cells isolated using beads coated with specific antibodies following manufacturer's instruction (MojoSort™ Human Cell Isolation Kits from Biolegend). The CD4+ T cells were re-infected with HIV-1 (JR-CSF) (1 μg of p24), incubated for 3 days to allow establishment of infection, and treated with ART ([…]) for 7 days to ensure presence of enough latent HIV CD4+ cells (rCD4+) in the culture. Upon ART removal, rCD4 were then isolated following manufacturer's instruction (EasySep™ Human Resting CD4+ T Cell Isolation Kit). The isolated rCD4 were mixed with autologous (from the same patient) uninfected CD8+ T cells at a 1:1 ratio (100,000 cells) and incubated in duplicate for 48 h with different IAPa ([…]) or ICI (10 μg/ml) in monotherapy, or the IAPa/ICI combinations. Amounts of virions released from cells were quantified at the indicated time points by quantifying HIV RNA levels (HIV RNA copies/mL) in supernatant of cell culture using one-step reverse transcriptase quantitative real-time PCR (ABI custom TaqMan Assays-by-Design) according to the manufacturer's instructions. Primers were 5-[…]-3 and 5-[…]-3, and MGB probe 5-FAM-[…]-Q-3, where FAM is 6-carboxyfluorescein.

[2] = test system: latent HIV in resting CD4+ T-lymphocytes; assay: HIV-1 reactivation in resting CD4+ T cells from PBMCs of three ART-treated HIV patients (HIV RNA in supernatant); format: cell-based, human
Source text: The experiments of this example analyzed the ability of IAPa, ICIs, or IAPa/ICI combinations at reactivating latent HIV in resting CD4+ T-lymphocytes isolated from peripheral blood monocytic cells (PBMCs) derived from HIV patients currently under ART.
Method: Resting CD4+ T cells were isolated from PBMCs of three ART-treated HIV patients by negative selection and magnetic separation (Easysep Mouse/Human Chimera Isolation Kits from […] technologies). Isolated resting CD4+ T cells (50,000 cells/50 μL) were treated in duplicate for 48h with different IAPa (1 μM) or ICI (10 μg/ml) in monotherapy, or the IAPa/ICI combinations. Amounts of virions released from cells were quantified at the indicated time points by quantifying HIV RNA levels (HIV RNA copies/mL) in supernatant of cell culture using one-step reverse transcriptase quantitative real-time PCR (ABI custom TaqMan Assays-by-Design) according to the manufacturer's instructions. Primers were 5-[…]-3 and 5-[…]-3, and MGB probe 5-FAM-[…]-Q-3, where FAM is 6-carboxyfluorescein.
(§1) The experiment was carried out using the same agents as described above for Example 8.1 (with the exception that no birinapant was used).

[3] = test system: latent HIV-1 in resting CD4+ T cells; assay: Ex vivo HIV-1 reactivation in human resting CD4+ T cells from ART-treated HIV-1-infected humanized BLT mice (HIV RNA in supernatant); format: cell-based
Description: The efficacy of IAPa, ICI or IAPa/ICI combinations in reversing HIV-1 latency was tested in resting CD4+ T cells derived from ART-treated HIV-1-infected humanized BLT mice.
Human resting CD4+ T cells from ten mice were isolated from blood, thymic organoid, lung, spleen, bone marrow, lymph nodes and liver. Isolated human resting CD4+ T cells were pooled, counted, split and treated in duplicate for 48 h with different IAPa (1 μM) or ICI (10 μg/ml) in monotherapy, or the IAPa/ICI combinations. Amounts of virions released from cells were quantified at the indicated time points by quantifying HIV RNA levels (HIV RNA copies/mL) in supernatant of cell culture using one-step reverse transcriptase quantitative real-time PCR (ABI custom TaqMan Assays-by-Design) according to the manufacturer's instructions. Primers were 5-[…]-3 and 5-[…]-3, and MGB probe 5-FAM-[…]-Q-3, where FAM is 6-carboxyfluorescein.
as §1

[4] = test system: latent HIV-1 in 2D10 cells; assay: HIV-1 reactivation in latent GFP-reporter 2D10 cells, Debio 1143 and other LRAs alone or in combination; format: cell-based; details: LRA at single predetermined concentration with Debio 1143, already at 2 μM Debio 1143, 48 h
Description: We compared the efficacy of Debio-1143 at reversing HIV-1 latency with that of other LRAs. We then analyzed the cytotoxicity of Debio-1143 with that of the other LRAs on 2D10 cells. Drug titration was conducted.
Methods: HIV-1 latent GFP-reporter 2D10 cells (100,000 cells/100 μL) were treated in triplicate for 48 h with increasing concentrations of either only Debio-1143 or the LRAs (2000 nM or 20000 nM), or with Debio 1143 (2000 nM or 20000 nM) in combination with the LRAs at a single predetermined concentration (see Table 2). HIV reactivation was analyzed via GFP expression by flow cytometry.

2D10 cells = assay: Cytotoxicity by LDH assay in 2D10 cells; format: cell-based; details: 0 to 20 μM, 48 h
Description: Drug titration was conducted.
For analysis of cell viability, cells (100,000 cells/100 μL) were treated in triplicate for 48 h with increasing concentrations of Debio-1143 or other known LRAs (0 to 20 μM). Cellular cytotoxicity was analyzed by Lactate dehydrogenase (LDH) assay. LDH is an oxidoreductase enzyme that catalyzes the interconversion of pyruvate and lactate. Cells release LDH into the bloodstream after tissue damage or red blood cell hemolysis. Since LDH is a fairly stable enzyme, it has been widely used to evaluate the presence of damage and toxicity of tissue and cells. In this particular, LDH reduces NAD to NADH, which is specifically detected by colorimetric (490 nm) assay.

BIRC2 = molecular target: T1, BIRC2 (Homo sapiens, UniProt Q13490); assay: BIRC2 (cIAP1) degradation by Western blotting; format: cell-based; details: TNFα 10 ng/ml, 2D10 and 293T cells
T1 construct: endogenous in cells; host or cells: 2D10, 293T and CD4+ T cells
T1 sequence (Q13490 whole entry): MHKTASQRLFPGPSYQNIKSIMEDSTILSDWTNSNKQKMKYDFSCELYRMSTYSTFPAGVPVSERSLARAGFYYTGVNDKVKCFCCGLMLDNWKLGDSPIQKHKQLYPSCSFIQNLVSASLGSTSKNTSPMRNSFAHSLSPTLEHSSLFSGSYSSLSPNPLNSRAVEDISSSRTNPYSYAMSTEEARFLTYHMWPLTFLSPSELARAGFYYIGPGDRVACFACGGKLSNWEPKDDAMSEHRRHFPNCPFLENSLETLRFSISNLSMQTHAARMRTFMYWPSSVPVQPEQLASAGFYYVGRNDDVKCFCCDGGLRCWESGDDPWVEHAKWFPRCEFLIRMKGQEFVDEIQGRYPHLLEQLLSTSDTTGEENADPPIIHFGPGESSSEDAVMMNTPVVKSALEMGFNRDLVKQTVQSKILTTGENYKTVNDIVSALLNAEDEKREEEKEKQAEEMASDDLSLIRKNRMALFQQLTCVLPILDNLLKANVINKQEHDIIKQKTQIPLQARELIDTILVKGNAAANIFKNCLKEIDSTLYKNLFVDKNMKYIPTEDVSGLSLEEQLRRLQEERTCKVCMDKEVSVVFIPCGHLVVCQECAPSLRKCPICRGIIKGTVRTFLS
Description: It was investigated whether Debio-1143 reverses HIV-1 latency by acting on the NF-κB pathway. Canonical and non-canonical NF-κB signaling pathways play an important role in the reactivation of latent HIV-1, implicating its regulation as an important therapeutic strategy for latency reversal.
Method: 2D10 (A) or 293T (B) and CD4+ T cells (C) cells were treated with DMSO, Debio-1143 (1 μM) and TNFα (10 ng/ml) for the indicated times and analyzed by Western blotting for BIRC2 and IkBα protein expression using antibodies specifically detecting human BIRC2, human IkBα, or human CypA, such as commercially available (e.g. from R&D Systems, Cell Signaling, Santa Cruz Biotechnology, or other sources).

[5] = IAPa 1 μM monotherapy (0.1% DMSO, no ICI), 48 h
[6] = IAPa 1 μM with Control IgG1, 48 h
[7] = IAPa 1 μM with Control IgG2, 48 h
[8] = IAPa 1 μM monotherapy (0.1% DMSO, no ICI), 48 h (Table 3)
[9] = IAPa 1 μM with Control IgG1, 48 h (Table 3)
[10] = IAPa 1 μM with Control IgG2, 48 h (Table 3)

**Q.** For `CC[C@H](NC(=O)[C@H](C)NC)C(=O)N1C[C@@H](O)C[C@H]1Cc1c(-c2[nH]c3cc(F)ccc3c2C[C@@H]2C[C@H](O)CN2C(=O)[C@H](CC)NC(=O)[C@H](C)NC)[nH]c2cc(F)ccc12` [Birinapant], which “latency reversal class (HIV RNA copies/ml in supernatant)” value (from here on “latency reversal class”) ([1]; IAPa 1 μM monotherapy (0.1% DMSO, no ICI), 48 h (Table 4)) is on record?
**A.** Its value is 3 (Subsequent classes were defined accordingly in steps of 500 RNA copies/ml).

**Q.** What about the “latency reversal class” value ([1]; IAPa 1 μM with Control IgG1, 48 h (Table 4)) of the same compound?
**A.** Its value is 3 (Subsequent classes were defined accordingly in steps of 500 RNA copies/ml).

**Q.** What about the “latency reversal class” value ([1]; IAPa 1 μM with Control IgG2, 48 h (Table 4)) of the same compound?
**A.** The value was 3 (Subsequent classes were defined accordingly in steps of 500 RNA copies/ml).

**Q.** `CN[C@@H](C)C(=O)N[C@H](C(=O)N1CCC[C@H]1C(=O)Nc1sc(-c2ncco2)nc1-c1ccccc1)C1CCCCC1` [CUDC-427] was tested. Which “latency reversal class” value [2, 5] did it give?
**A.** Its value is 1 (Between 501 and 1000 RNA copies/ml were classified as “1”).

**Q.** And the “latency reversal class” value [2, 6]?
**A.** The value was 1 (Between 501 and 1000 RNA copies/ml were classified as “1”).

**Q.** And the “latency reversal class” value [2, 7]?
**A.** Its value is 1 (Between 501 and 1000 RNA copies/ml were classified as “1”).

**Q.** What about the “latency reversal class” value [3, 5] of the same compound?
**A.** The value was 2 (Between 2501 and 5000 RNA copies/ml were classified as “2”).

**Q.** What about the “latency reversal class” value [3, 6] of the same compound?
**A.** The value was 2 (Between 2501 and 5000 RNA copies/ml were classified as “2”).

**Q.** And the “latency reversal class” value [3, 7]?
**A.** The value was 2 (Between 2501 and 5000 RNA copies/ml were classified as “2”).

**Q.** What about the “latency reversal class” value [1, 8] of the same compound?
**A.** The value was 3 (Subsequent classes were defined accordingly in steps of 500 RNA copies/ml).

**Q.** And the “latency reversal class” value [1, 9]?
**A.** The value was 3 (Subsequent classes were defined accordingly in steps of 500 RNA copies/ml).

**Q.** And the “latency reversal class” value [1, 10]?
**A.** Its value is 3 (Subsequent classes were defined accordingly in steps of 500 RNA copies/ml).

**Q.** `Cc1sc2c(c1C)C(c1ccc(Cl)cc1)=N[C@@H](CC(=O)OC(C)(C)C)c1nnc(C)n1-2` [JQ1] was tested. Which “degree of HIV reactivation in combination with Debio 1143” value (“degree of HIV reactivation” for short) [4] did it give?
**A.** The value was “high degrees of HIV reactivation”.

**Q.** What does the source list for `CN[C@@H](C)C(=O)N[C@H](C(=O)N1CCC[C@H]1c1nc(C(=O)c2ccc(F)cc2)cs1)C1CCCCC1` [LCL161]?
**A.** latency reversal class (HIV RNA copies/ml in supernatant) [2, 5]: 1 (Between 501 and 1000 RNA copies/ml were classified as “1”); latency reversal class (HIV RNA copies/ml in supernatant) [2, 6]: 1 (Between 501 and 1000 RNA copies/ml were classified as “1”); latency reversal class (HIV RNA copies/ml in supernatant) [2, 7]: 1 (Between 501 and 1000 RNA copies/ml were classified as “1”); latency reversal class (HIV RNA copies/ml in supernatant) [3, 5]: 2 (Between 2501 and 5000 RNA copies/ml were classified as “2”); latency reversal class (HIV RNA copies/ml in supernatant) [3, 6]: 2 (Between 2501 and 5000 RNA copies/ml were classified as “2”); latency reversal class (HIV RNA copies/ml in supernatant) [3, 7]: 2 (Between 2501 and 5000 RNA copies/ml were classified as “2”); latency reversal class (HIV RNA copies/ml in supernatant) [1, 8]: 3 (Subsequent classes were defined accordingly in steps of 500 RNA copies/ml); latency reversal class (HIV RNA copies/ml in supernatant) [1, 9]: 2 (Subsequent classes were defined accordingly in steps of 500 RNA copies/ml); latency reversal class (HIV RNA copies/ml in supernatant) [1, 10]: 3 (Subsequent classes were defined accordingly in steps of 500 RNA copies/ml)

**Q.** What does the source list for `CCC/C=C/C=C/C(=O)O[C@H]1/C(=C/C(=O)OC)C[C@H]2C[C@H]([C@@H](C)O)OC(=O)C[C@H](O)C[C@@H]3C[C@H](OC(C)=O)C(C)(C)[C@](O)(C[C@@H]4C/C(=C/C(=O)OC)C[C@H](/C=C/C(C)(C)[C@]1(O)O2)O4)O3` [bryostatin-1]?
**A.** cytotoxicity (LDH assay) (2D10 cells): highly toxic; degree of HIV reactivation in combination with Debio 1143 [4]: high degrees of HIV reactivation

**Q.** Which “cytotoxicity (LDH assay)” value (2D10 cells) does the source give for `CN1C(=O)[C@@]23C[C@]4([C@]56C[C@@]78SS[C@@](CO)(C(=O)N7[C@H]5Nc5ccccc56)N(C)C8=O)c5ccccc5N[C@@H]4N2C(=O)[C@]1(CO)SS3` [chaetocin] here?
**A.** Its value is “highly toxic”.

**Q.** For `Nc1ccccc1NC(=O)c1ccc(CNC(=O)OCc2cccnc2)cc1` [entinostat], which “degree of HIV reactivation” value [4] is on record?
**A.** The value was “high degrees of HIV reactivation”.

**Q.** Which “cytotoxicity (LDH assay)” value (2D10 cells) does the source give for `Cc1[nH]c2ccccc2c1CCNCc1ccc(/C=C/C(=O)NO)cc1` [panobinostat] here?
**A.** The value was “highly toxic”.

**Q.** Which “degree of HIV reactivation” value [4] does the source give for `O=C(CCCCCCC(=O)Nc1ccccc1)NO` [vorinostat] here?
**A.** Its value is “high degrees of HIV reactivation”.

**Q.** Which BIRC2 degradation (BIRC2) does the source give for TNFα [reference compound] here?
**A.** The BIRC2 degradation was “not”.
